The record followed here is publication PMC7667534, “Calixarbutin: A Novel Calixarene-based Potential Water-soluble Anti-tyrosinase Agent with High Anti-melanoma Activity” (Iranian Journal of Pharmaceutical Research : IJPR, 2020).

The target of experiment [1] is Mushroom tyrosinase. Description: DOPA-chrome assay with L-DOPA ([…]), mushroom tyrosinase […] U/mL, absorbance at […] nm; reference inhibitor measured by the authors. It counts as biochemical. The settings on record: read-out: Anti-tyrosinase activity (IC50).
The target in experiment [2] is Mushroom tyrosinase. Description: DOPA-chrome assay with L-DOPA ([…]), mushroom tyrosinase […] U/mL, absorbance at […] nm. Format: biochemical. The settings on record: read-out: Anti-tyrosinase activity (IC50).

Take `OC[C@H]1O[C@@H](Oc2ccc(O)cc2)[C@H](O)[C@@H](O)[C@@H]1O` [Arbutin]: in experiment [1], the 50% inhibitory concentration (IC50) came out at 168 ± 7 µM.
Turning to `OC[C@H]1O[C@@H](Oc2c3cc(O)cc2Cc2cc(O)cc(c2O[C@@H]2O[C@H](CO)[C@@H](O)[C@H](O)[C@H]2O)Cc2cc(O)cc(c2O[C@@H]2O[C@H](CO)[C@@H](O)[C@H](O)[C@H]2O)Cc2cc(O)cc(c2O[C@@H]2O[C@H](CO)[C@@H](O)[C@H](O)[C@H]2O)C3)[C@H](O)[C@@H](O)[C@@H]1O` [compound 4], the IC50 in experiment [2] was 26 ± 1 µM.

A word on the IC50: it is the concentration that gives 50% inhibition.
